Test results reported in ChEMBL document CHEMBL3774354, “Discovery of Selective Histone Deacetylase 6 Inhibitors Using the Quinazoline as the Cap for the Treatment of Cancer” (J Med Chem, 2016).
Calls of active or inactive are those of the source. The rule behind the calls is not given here.

Legend:
Mus musculus [1] = assay: Toxicity in Balb/c nude mouse xenografted with human HCT116 cells assessed as death at 25 mg/kg, po q2d for 8 days; assay type: organism-based, HCT-116; details: in vivo, 192 h
Mus musculus [2] = assay: Toxicity in NOD/SCID mouse xenografted with human Ramos cells assessed as death at 40 mg/kg, po q2d for 6 days; assay type: organism-based; details: in vivo, 144 h
[3] = target: T1, Protein deacetylase HDAC6 (Homo sapiens) (UniProt Q9UBN7); assay: Inhibition of HDAC6 in human MV4-11 cells assessed as upregulation of alpha- tubulin acetylation after 6 hrs by Western blot analysis; assay type: cell-based
T1 sequence (whole entry): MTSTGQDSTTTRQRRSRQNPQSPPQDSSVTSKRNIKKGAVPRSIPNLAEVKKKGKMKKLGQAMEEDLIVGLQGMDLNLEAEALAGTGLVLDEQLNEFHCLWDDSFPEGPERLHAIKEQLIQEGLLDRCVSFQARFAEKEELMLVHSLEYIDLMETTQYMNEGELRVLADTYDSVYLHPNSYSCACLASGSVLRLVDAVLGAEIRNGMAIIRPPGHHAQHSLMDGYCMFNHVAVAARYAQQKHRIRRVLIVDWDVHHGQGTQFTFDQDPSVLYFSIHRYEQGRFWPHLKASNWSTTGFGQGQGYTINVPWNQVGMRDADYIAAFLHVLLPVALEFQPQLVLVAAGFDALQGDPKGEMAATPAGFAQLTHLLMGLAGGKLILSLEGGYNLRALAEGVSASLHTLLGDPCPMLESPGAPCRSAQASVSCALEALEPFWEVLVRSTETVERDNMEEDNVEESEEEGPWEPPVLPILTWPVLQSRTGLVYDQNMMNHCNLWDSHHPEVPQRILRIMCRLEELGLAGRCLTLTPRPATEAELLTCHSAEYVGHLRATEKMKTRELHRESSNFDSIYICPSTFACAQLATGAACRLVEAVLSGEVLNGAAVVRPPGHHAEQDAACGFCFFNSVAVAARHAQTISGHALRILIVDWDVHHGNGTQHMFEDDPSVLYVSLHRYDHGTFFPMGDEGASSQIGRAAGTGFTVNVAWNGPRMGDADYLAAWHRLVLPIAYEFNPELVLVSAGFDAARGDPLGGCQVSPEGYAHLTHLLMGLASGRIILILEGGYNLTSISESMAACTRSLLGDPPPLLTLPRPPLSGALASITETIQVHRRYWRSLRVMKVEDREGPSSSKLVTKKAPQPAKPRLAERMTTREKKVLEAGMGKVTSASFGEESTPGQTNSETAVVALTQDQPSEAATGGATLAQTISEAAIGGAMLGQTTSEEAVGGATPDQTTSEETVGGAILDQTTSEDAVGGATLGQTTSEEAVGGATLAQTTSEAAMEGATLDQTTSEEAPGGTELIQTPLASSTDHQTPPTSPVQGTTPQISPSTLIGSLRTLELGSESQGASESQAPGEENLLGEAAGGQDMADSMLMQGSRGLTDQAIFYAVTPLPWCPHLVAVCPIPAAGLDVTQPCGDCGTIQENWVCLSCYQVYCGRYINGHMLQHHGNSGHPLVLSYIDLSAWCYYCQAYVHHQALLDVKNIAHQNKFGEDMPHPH

[4] = target: T1, Protein deacetylase HDAC6 (Homo sapiens); assay: Inhibition of HDAC6 in human HCT116 cells assessed as upregulation of alpha- tubulin acetylation after 6 hrs by Western blot analysis; assay type: cell-based; details: HCT-116
[5] = target: T2, Protein deacetylase HDAC6 (Homo sapiens, UniProt Q9UBN7); assay: Inhibition of HDAC6 in human HeLa cells assessed as induction of tubulin acetylation incubated for 6 hrs by cytoblot assay; assay type: cell-based
T2 sequence (Q9UBN7 whole entry): T1 sequence (whole entry)

HeLa [6] = assay: Induction of histone H3 acetylation in human HeLa cells incubated for 6 hrs by cytoblot assay; assay type: functional, cell-based
A-375 = assay: Antiproliferative activity against human A375 cells after 72 hrs by MTT assay; assay type: functional, cell-based; details: A-375, 72 h
HeLa [7] = assay: Antiproliferative activity against human HeLa cells after 72 hrs by MTT assay; assay type: functional, cell-based
[8] = Cytotoxicity against human U266 cells after 72 hrs by MTT assay; assay type: functional, cell-based; details: U-266, 72 h
[9] = Cytotoxicity against human RPMI8226 cells after 72 hrs by MTT assay; assay type: functional, cell-based; details: RPMI-8226, 72 h
MV4-11 = assay: Cytotoxicity against human MV4-11 cells after 72 hrs by MTT assay; assay type: functional, cell-based; details: MV4-11, 72 h
Ramos [10] = assay: Cytotoxicity against human Ramos cells after 72 hrs by MTT assay; assay type: functional, cell-based
[11] = Cytotoxicity against human SKOV3 cells after 72 hrs by MTT assay; assay type: functional, cell-based; details: SK-OV-3, 72 h
[12] = Cytotoxicity against human SKBR3 cells after 72 hrs by MTT assay; assay type: functional, cell-based; details: SK-BR-3, 72 h
HepG2 = assay: Cytotoxicity against human HepG2 cells after 72 hrs by MTT assay; assay type: functional, cell-based; details: HepG2, 72 h
[13] = Cytotoxicity against human H460 cells after 72 hrs by MTT assay; assay type: functional, cell-based; details: NCI-H460, 72 h
A549 = assay: Cytotoxicity against human A549 cells after 72 hrs by MTT assay; assay type: functional, cell-based; details: A549, 72 h
[14] = Cytotoxicity against human HCT116 cells after 72 hrs by MTT assay; assay type: functional, cell-based; details: HCT-116, 72 h
[15] = Volume of distribution at steady state in Sprague-Dawley rat at 12 mg/kg, iv administered by bolus injection measured up to 24 hrs by LC-MS/MS analysis; assay type: ADME, organism-based; details: in vivo, read-out: Vdss
[16] = AUC (0 to infinity) in Sprague-Dawley rat at 12 mg/kg, iv administered by bolus injection measured up to 24 hrs by LC-MS/MS analysis; assay type: ADME, organism-based; parameters: dose 12 mg/kg, route intravenous, time infinity; details: in vivo
[17] = Systemic clearance in Sprague-Dawley rat at 12 mg/kg, po measured up to 24 hrs by LC-MS/MS analysis; assay type: ADME, organism-based; details: in vivo
[18] = AUC (0 to infinity) in Sprague-Dawley rat at 12 mg/kg, po measured up to 24 hrs by LC-MS/MS analysis; assay type: ADME, organism-based; parameters: dose 12 mg/kg, route oral, time infinity; details: in vivo
Ramos [19] = assay: Antitumor activity against human Ramos cells xenografted in NOD/SCID mouse assessed as tumor mass change at 40 mg/kg, po q2d for 6 days; assay type: functional
Mus musculus [20] = assay: Toxicity in Balb/c nude mouse xenografted with human HCT116 cells assessed as change in body weight at 25 mg/kg, po q2d for 8 days; assay type: organism-based, HCT-116; details: in vivo, 192 h
Histone deacetylase 5 = Histone deacetylase 5 (Homo sapiens, UniProt Q9UQL6)
Description: Inhibition of recombinant HDAC5 (unknown origin) using AMC labeled AC-peptide as substrate incubated for 1 hr by fluorescence analysis

Histone deacetylase 7 = Histone deacetylase 7 (Homo sapiens, UniProt Q8WUI4)
Description: Inhibition of recombinant HDAC7 (unknown origin) using AMC labeled AC-peptide as substrate incubated for 1 hr by fluorescence analysis

Histone deacetylase 9 = Histone deacetylase 9 (Homo sapiens, UniProt Q9UKV0)
Description: Inhibition of recombinant HDAC9 (unknown origin) using AMC labeled AC-peptide as substrate incubated for 1 hr by fluorescence analysis

Histone deacetylase 11 = Histone deacetylase 11 (Homo sapiens, UniProt Q96DB2)
Description: Inhibition of recombinant HDAC11 (unknown origin) using AMC labeled AC-peptide as substrate incubated for 1 hr by fluorescence analysis

[21] = target: Histone deacetylase 1/2/3 (Homo sapiens) (UniProt Q13547+O15379+Q92769); details: MV4-11, 1000 nM
Description: Inhibition of HDAC1/2/3 in human MV4-11 cells assessed as upregulation of histone H3 acetylation at 1000 nM after 6 hrs by Western blot analysis

Chain of Histone deacetylase 7 (Q8WUI4 whole entry): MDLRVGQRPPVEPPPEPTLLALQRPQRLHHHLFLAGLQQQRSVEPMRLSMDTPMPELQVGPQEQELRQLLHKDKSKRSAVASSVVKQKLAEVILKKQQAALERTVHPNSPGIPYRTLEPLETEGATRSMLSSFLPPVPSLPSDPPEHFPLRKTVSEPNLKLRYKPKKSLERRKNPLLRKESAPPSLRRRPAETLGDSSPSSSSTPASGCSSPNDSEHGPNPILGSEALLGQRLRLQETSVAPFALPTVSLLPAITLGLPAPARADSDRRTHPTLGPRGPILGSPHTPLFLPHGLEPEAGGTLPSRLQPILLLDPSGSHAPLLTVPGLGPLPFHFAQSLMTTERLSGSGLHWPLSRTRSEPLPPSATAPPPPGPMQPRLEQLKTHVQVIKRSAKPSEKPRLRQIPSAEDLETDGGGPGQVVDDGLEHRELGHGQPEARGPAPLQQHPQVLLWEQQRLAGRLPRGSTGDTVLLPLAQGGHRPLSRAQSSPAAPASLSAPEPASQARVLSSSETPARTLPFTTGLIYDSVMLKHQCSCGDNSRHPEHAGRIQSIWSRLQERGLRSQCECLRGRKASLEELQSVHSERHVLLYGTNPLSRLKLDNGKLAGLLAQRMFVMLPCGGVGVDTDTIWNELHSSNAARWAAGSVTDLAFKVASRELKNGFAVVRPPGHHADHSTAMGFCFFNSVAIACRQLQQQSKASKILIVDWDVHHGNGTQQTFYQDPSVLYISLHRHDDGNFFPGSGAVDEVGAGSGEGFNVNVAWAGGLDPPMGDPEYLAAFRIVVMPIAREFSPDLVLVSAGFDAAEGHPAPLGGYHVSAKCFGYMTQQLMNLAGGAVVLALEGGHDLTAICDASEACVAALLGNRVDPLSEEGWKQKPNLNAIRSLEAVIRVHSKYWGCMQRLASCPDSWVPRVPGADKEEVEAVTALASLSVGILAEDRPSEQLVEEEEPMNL
Chain of Histone deacetylase 5 (Q9UQL6 whole entry): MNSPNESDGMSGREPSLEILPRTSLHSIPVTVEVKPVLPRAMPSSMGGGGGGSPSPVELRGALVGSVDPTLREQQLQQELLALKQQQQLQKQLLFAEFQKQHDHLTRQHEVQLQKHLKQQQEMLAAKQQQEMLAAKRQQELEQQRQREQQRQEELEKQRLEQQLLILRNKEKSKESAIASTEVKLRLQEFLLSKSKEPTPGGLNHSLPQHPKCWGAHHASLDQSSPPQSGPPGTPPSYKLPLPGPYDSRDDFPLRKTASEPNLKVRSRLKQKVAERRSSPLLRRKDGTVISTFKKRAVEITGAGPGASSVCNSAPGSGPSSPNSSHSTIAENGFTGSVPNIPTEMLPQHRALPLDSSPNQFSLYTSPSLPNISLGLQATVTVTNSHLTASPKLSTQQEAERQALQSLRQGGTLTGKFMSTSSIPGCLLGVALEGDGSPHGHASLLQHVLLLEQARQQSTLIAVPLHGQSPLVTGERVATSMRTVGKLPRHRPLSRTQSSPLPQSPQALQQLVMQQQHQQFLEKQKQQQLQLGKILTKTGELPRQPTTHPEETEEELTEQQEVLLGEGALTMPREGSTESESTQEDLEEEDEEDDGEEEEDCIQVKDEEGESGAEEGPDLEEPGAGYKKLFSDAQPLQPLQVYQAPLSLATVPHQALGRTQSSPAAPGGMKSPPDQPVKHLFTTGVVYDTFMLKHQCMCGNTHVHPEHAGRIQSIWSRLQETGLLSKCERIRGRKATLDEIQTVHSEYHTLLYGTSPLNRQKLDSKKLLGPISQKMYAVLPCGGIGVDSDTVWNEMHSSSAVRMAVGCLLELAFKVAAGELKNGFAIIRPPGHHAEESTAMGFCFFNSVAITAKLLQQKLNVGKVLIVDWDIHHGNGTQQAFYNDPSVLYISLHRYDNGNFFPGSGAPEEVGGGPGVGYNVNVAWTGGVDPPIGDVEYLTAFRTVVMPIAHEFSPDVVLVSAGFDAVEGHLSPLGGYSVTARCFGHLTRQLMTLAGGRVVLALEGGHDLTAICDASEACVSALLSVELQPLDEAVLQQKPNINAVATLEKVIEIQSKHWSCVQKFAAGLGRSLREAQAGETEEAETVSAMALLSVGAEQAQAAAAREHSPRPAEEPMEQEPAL
Chain of Histone deacetylase 11 (Q96DB2 whole entry): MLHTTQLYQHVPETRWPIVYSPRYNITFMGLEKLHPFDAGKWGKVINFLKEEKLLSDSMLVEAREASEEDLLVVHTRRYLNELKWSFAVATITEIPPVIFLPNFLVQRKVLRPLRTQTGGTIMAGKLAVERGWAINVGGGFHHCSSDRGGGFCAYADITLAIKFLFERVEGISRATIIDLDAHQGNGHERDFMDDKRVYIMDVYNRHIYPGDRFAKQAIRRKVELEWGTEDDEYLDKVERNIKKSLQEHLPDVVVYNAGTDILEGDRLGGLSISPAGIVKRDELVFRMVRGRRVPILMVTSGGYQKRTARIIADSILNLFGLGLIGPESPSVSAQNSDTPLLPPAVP
Chain of Histone deacetylase 9 (Q9UKV0 whole entry): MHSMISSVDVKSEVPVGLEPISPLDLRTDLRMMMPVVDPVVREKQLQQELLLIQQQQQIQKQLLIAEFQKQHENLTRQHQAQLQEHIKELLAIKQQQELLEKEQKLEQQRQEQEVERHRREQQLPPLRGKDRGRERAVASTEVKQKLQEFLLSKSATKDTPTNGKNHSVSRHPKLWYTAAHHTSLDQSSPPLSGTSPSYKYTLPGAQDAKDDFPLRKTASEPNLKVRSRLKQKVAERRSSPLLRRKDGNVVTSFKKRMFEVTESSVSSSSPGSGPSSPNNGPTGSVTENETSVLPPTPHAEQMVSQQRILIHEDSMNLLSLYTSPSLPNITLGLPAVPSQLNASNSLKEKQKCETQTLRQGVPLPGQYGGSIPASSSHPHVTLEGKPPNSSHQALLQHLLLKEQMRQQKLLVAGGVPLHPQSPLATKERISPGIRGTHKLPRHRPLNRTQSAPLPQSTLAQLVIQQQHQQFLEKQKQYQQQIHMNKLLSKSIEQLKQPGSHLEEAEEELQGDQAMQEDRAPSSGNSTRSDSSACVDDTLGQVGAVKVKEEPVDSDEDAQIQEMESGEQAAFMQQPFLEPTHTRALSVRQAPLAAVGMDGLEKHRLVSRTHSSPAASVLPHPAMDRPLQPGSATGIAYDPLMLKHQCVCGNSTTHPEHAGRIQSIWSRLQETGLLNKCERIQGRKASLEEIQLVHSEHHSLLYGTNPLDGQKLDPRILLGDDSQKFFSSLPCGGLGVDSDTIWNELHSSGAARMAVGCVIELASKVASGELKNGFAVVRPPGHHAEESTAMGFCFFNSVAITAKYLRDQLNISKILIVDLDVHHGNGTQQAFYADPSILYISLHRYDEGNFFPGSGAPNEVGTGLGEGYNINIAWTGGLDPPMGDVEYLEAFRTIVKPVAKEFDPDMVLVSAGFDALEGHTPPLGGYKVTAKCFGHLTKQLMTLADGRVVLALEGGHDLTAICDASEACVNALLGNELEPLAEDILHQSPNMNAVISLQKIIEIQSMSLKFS

COc1ccc(N(C)c2nc(C)nc3ccccc23)cc1OCCCC(=O)NO
Activity (Mus musculus [1]): Non-toxic | Activity (Mus musculus [2]): Non-toxic | inhibition [3]: Dose-dependent effect | inhibition [4]: Dose-dependent effect | EC50 [5]: 58.9 nM | EC50 (HeLa [6]): 1740 nM | IC50 (A-375): 45 nM | IC50 (HeLa [7]): 49 nM | IC50 [8]: 14 nM | IC50 [9]: 15 nM | IC50 (MV4-11): 60 nM | IC50 (Ramos [10]): 71 nM | IC50 [11]: 50 nM | IC50 [12]: 22 nM | IC50 (HepG2): 41 nM | IC50 [13]: 55 nM | IC50 (A549): 104 nM | IC50 [14]: 35 nM | Vd [15]: 61.3 L/kg | AUC(0-inf) [16]: 2430 ng·h/mL | CL/F [17]: 215 mL/min/kg | AUC(0-inf) [18]: 1240 ng·h/mL | Activity (Ramos [19]): 22.5% | Activity (Mus musculus [20]): -3.8% | IC50 (Histone deacetylase 5): > 10000 nM | IC50 (Histone deacetylase 7): > 10000 nM | IC50 (Histone deacetylase 9): > 10000 nM | IC50 (Histone deacetylase 11): > 10000 nM | inhibition [21]: Active
